System: MCF7
Assay: Cytotoxicity against human MCF7 cells after 48 hrs by MTT assay
Format: functional, cell-based
Settings: MCF7, 48 h

SMILES | IC50 [µM]
CCc1cccc(CC)c1N(COC)C(=O)Cn1c(CO)nc2ccccc21 | 123
Nc1ccc(-c2nc3cc(N)ccc3n2CCO)cc1 | > 200
CC(C)CC(C(=O)Nc1cccc(O)c1)N1C(=O)c2ccccc2C1=O (stereo not given) | 148
Cc1ccc(C)c(C(=O)C2=C(O)C(=O)N(Cc3ccco3)C2c2cccnc2)c1 (stereo not given) | > 200
COc1cccc(NC(=O)COc2ccc(C3C(C#N)=C(N)Oc4[nH]nc(C)c43)cc2)c1 (stereo not given) | 38.5
Nc1ccc(Oc2ccc3nc(-c4ccccc4)c(-c4ccc(N)cc4)nc3c2)cc1 | 65.4
Cc1ccc(/C=N\NC(=O)Cn2c(-c3nonc3N)nc3ccccc32)cc1 | 172
COc1ccc(-n2c(SCC(=O)Nc3cccc(C(C)=O)c3)nnc2-c2ccccc2OC)cc1 | > 200
COc1cc(C2C(C(=O)c3ccc(F)cc3)=C(O)C(=O)N2Cc2cccnc2)ccc1O (stereo not given) | 185
COc1ccc(-c2cc(C(F)(F)F)n3ncc(C(=O)NC(C)c4ccccc4)c3n2)cc1OC (stereo not given) | 30.2
COc1ccc(COC(=O)/C(=C(\C)NC(N)=O)C(C)c2ccccc2OCc2ccccc2)cc1 (stereo not given) | 108
Cc1cc(C(=O)C2=C(O)C(=O)N(CCN3CCOCC3)C2c2ccncc2)ccc1OCC(C)C (stereo not given) | 151
CCOc1cccc(C(=O)C2=C(O)C(=O)N(Cc3ccco3)C2c2cccnc2)c1 (stereo not given) | 181
C[C@]12CC[C@H](O)CC1=CC[C@@H]1[C@@H]2CC[C@]2(C)C(=O)CC[C@@H]12 [PRASTERONE] | > 200
CC/C(=C(\c1ccccc1)c1ccc(OCCN(C)C)cc1)c1ccccc1 [TAMOXIFEN] | 15.2

Source: ChEMBL document CHEMBL2439954, “3D-QSAR using pharmacophore-based alignment and virtual screening for discovery of novel MCF-7 cell line inhibitors” (Eur J Med Chem, 2013)
